Experimental data: paper PMC4638293 (The Journal of Veterinary Medical Science, 2015)
Marks after values point to notes of the source that are not given here.

Format: in vivo
Conditions: rat, PY 4 mg/kg oral; for Total amount in feces: 24 hr feces collection; for Total amount in brain (tissue weight): whole brain; for Total amount in cecum (tissue weight): whole cecum; for Total amount in colon (tissue weight): whole colon; for Total amount in duodenum (tissue weight): whole duodenum; for Total amount in heart (tissue weight): whole heart; for Total amount in ileum (tissue weight): whole ileum; for Total amount in jejunum (tissue weight): whole jejunum; for Total amount in kidney (tissue weight): whole kidney; for Total amount in liver (tissue weight): whole liver; for Total amount in lung (tissue weight): whole lung; for Total amount in spleen (tissue weight): whole spleen; for Total amount in stomach (tissue weight): whole stomach; for Total amount in testes (tissue weight): whole testes; for Total amount in tongue (tissue weight): whole tongue
[1] = 24 hr urine collection, mean ± SD, unit ppb printed
[2] = 24 hr, wet-g, mean ± SD, unit ppb printed
[3] = 24 hr, mean ± SD, unit ppb printed

Structure (SMILES)	Total amount in feces (mean ± SD)	Concentration in urine [1]	Total amount in brain (tissue weight) (24 hr, mean ± SD)	Total amount in cecum (tissue weight) (24 hr, mean ± SD)	Total amount in colon (tissue weight) (24 hr, mean ± SD)	Total amount in duodenum (tissue weight) (24 hr, mean ± SD)	Total amount in heart (tissue weight) (24 hr, mean ± SD)	Total amount in ileum (tissue weight) (24 hr, mean ± SD)	Total amount in jejunum (tissue weight) (24 hr, mean ± SD)	Total amount in kidney (tissue weight) (24 hr, mean ± SD)	Total amount in liver (tissue weight) (24 hr, mean ± SD)	Total amount in lung (tissue weight) (24 hr, mean ± SD)	Total amount in spleen (tissue weight) (24 hr, mean ± SD)	Total amount in stomach (tissue weight) (24 hr, mean ± SD)	Total amount in testes (tissue weight) (24 hr, mean ± SD)	Total amount in tongue (tissue weight) (24 hr, mean ± SD)	Concentration in cecum [2]	Concentration in colon [2]	Concentration in heart [2]	Concentration in ileum [2]	further results
c1cc2ccc3cccc4ccc(c1)c2c34 [PY, Pyrene]	(380.9 ± 31.2) ng	4.3 ± 0.0^d,e ppb	(17.5 ± 1.5) ng	(33.0 ± 4.8) ng	(32.0 ± 7.7) ng	(19.4 ± 5.3) ng	(12.7 ± 1.5) ng	(22.0 ± 1.7) ng	(34.5 ± 14.8) ng	(12.1 ± 2.0) ng	(124.5 ± 20.4) ng	(10.7 ± 0.2) ng	(12.4 ± 0.8) ng	(22.4 ± 4.1) ng	(13.3 ± 3.7) ng	(11.4 ± 0.4) ng	–	–	–	–	Total amount in urine (24 hr urine collection, mean ± SD): (40.7 ± 9.6) ng
O=C(O)[C@H]1O[C@@H](Oc2ccc3ccc4cccc5ccc2c3c45)[C@H](O)[C@@H](O)[C@@H]1O [PYOG, Pyrene-1-glucuronide]	–	10.1 × 10^3 ± 400^c,d ppb	(310 ± 100) ng	(950 ± 70) ng	(1.0 × 10^3 ± 200) ng	–	(860 ± 140) ng	(58 × 10^3 ± 300) ng	–	(18 × 10^3 ± 880) ng	(70 × 10^3 ± 220) ng	(1.7 × 10^3 ± 640) ng	(380 ± 120) ng	(1.7 × 10^3 ± 100) ng	(1.1 × 10^3 ± 390) ng	(420 ± 110) ng	1.4 × 10^3 ± 100^d ppb	1.2 × 10^3 ± 300^d ppb	1.1 × 10^3 ± 200^d ppb	170.1 × 10^3 ± 700^a ppb	Share of PY excreted via urine as PYOG (24 hr urine): around 10%; Concentration in brain (24 hr, brain, wet-g, mean ± SD, unit ppb printed): 210 ± 60^d ppb; Concentration in duodenum (24 hr, duodenum, wet-g, mean ± SD, unit ppb printed): 65.9 × 10^3 ± 800^b,c ppb; Concentration in jejunum [2]: 87.1 × 10^3 ± 400^b ppb; Concentration in kidney [2]: 20.6 × 10^3 ± 100^c,d ppb; Concentration in liver [2]: 10.2 × 10^3 ± 300^c,d ppb; Concentration in lung [2]: 2.4 × 10^3 ± 900^c,d ppb; Concentration in plasma [3]: 446.0 ± 30^d ppb; Concentration in spleen (24 hr, spleen, wet-g, mean ± SD, unit ppb printed): 790 ± 20^d ppb; Concentration in stomach [2]: 1.7 × 10^3 ± 10^d ppb; Concentration in testes [2]: 1.0 × 10^3 ± 360^d ppb; Concentration in tongue (24 hr, tongue, wet-g, mean ± SD, unit ppb printed): 1.4 × 10^3 ± 500^d ppb
Oc1ccc2ccc3cccc4ccc1c2c34 [PYOH, 1-hydroxypyrene]	(755.8 × 10^3 ± 700) ng	546 ± 78^b ppb	–	(40.1 × 10^3 ± 100) ng	(11.4 × 10^3 ± 700) ng	(441 ± 29) ng	–	(4.1 × 10^3 ± 400) ng	(1.6 × 10^3 ± 200) ng	(135 ± 19) ng	(8.5 × 10^3 ± 100) ng	–	–	(871 ± 64) ng	(92 ± 37) ng	–	59.4 × 10^3 ± 800^a,b ppb	13 × 10^3 ± 800^b ppb	–	–	Share of PY excreted via feces as PYOH (24 hr feces): ~70%
O=S(=O)(O)Oc1ccc2ccc3cccc4ccc1c2c34 [PYOS, Pyrene-1-sulfate]	–	13 ± 7^b ppb	–	(57 ± 35) ng	(47 ± 16) ng	–	(9 ± 3) ng	(96 ± 10) ng	(48 ± 21) ng	(67 ± 33) ng	(650 ± 260) ng	(29 ± 9) ng	–	(11 ± 1) ng	(12 ± 3) ng	–	89 ± 58^a,b ppb	54 ± 20^b ppb	12 ± 4^b ppb	261 ± 21^a ppb	Concentration in jejunum [2]: 39 ± 17^b ppb; Concentration in kidney [2]: 76 ± 38^a,b ppb; Concentration in liver [2]: 96 ± 38^a,b ppb; Concentration in lung [2]: 38 ± 13^b ppb; Concentration in plasma [3]: 2 ± 1^b ppb; Concentration in stomach [2]: 11 ± 1^b ppb; Concentration in testes [2]: 11 ± 3^b ppb
